Assays:
Eimeria tenella [1] = test: Anticoccidial activity in chickens inoculated with Eimeria tenella oocysts (Example 11); type: in vivo; conditions: for anticoccidial activity (in words): 80 and 120 g/ton, mild E. tenella challenge; for Incidence of Bloody Droppings / Morbidity: 4th-6th day; for Mortality: 4th-7th day
Experimental: (§1) This example describes experimental testing of complexes of this invention for anticoccidial activity. Anticoccidial activities of test compounds were determined by administering the compounds (in feed) to chickens inoculated with active oocysts of Eimeria tenella. The test compounds, which are listed in Table 1 below, included four bacitracin-metal-polyether antibiotic complexes prepared according to the procedures described above. In addition, sodium lysocellin, regular bacitracin, sodium monensin, sodium lasolocid, and unmedicated inoculated and noninoculated controls were included for comparative purposes.
(§2) The test animals were Hubbard White Mountain male chicken (broiler strain) that were 5 days old at the beginning of the test. Each experimental compound was administered in a chick starter diet (Table 2) at a level of 80 g/ton and 120 g/ton. At 7 days of age, chicks were individually weighed, banded, and started on their respective treatments. Each treatment was replicated three times with five birds per replicate for a total of 15 birds per group. The test period was 10 days.
Seventy-two hours after the initiation of medication, birds were reweighed and orally inoculated with approximately 100,000 Eimeria tenella oocysts suspended in a 1 cc dose of saline. The following criteria were then evaluated over the next seven days: […]
a. morbidity (4th-6th day) b. mortality (4th-7th day) c. incidence of bloody droppings (4th-6th day)

Eimeria tenella [2] = test: Anticoccidial activity in chickens inoculated with Eimeria tenella (Example 12); type: in vivo, chicken; conditions: for Cecal Bleeding / Gain/Bird Days 0-3 / Gain/Bird Days 4-10: regrouped part of Table 2; for anticoccidial activity (in words): 120 grams per ton
Experimental: as §1, §2
Seventy-two hours after the initiation of medication, birds were reweighed and orally inoculated with approximately 100,000 Eimeria tenella oocysts suspended in a 1 cc dose of saline. The following criteria were then evaluated over the next seven days:
A satisfactory challenge was obtained with Eimeria tenella.

[3] = Weight gain and feed utilization efficiency in chicks, 11 days (Example 13); type: in vivo, chicken; parameters: key to Average Weight: average weight in grams; conditions: .00275% in rye basal diet; for Average Gain / Gain/Feed Ratio: 11 days; for Average Weight / Gain/Feed: Table 4; for Average Gain Index / Gain/Feed Ratio Index: unmedicated = 100
Experimental: (§3) This example describes experimetnal testing of complexes of the present invention as feed additives for improving weight gain or feed utilization efficiency in birds. Test animals were male meat-type chickens (Hubbard strain). Fluorescent room lights were on a 16 hours light/8 hours dark schedule. The chicks were allotted to the pens on the basis of weight classes, and chicks in the even numbered pens were wing banded. Group weights were obtained at the start and individual weights at the termination of the experiment. Chicks weighing between 55 and 65 grams were selected for the test. The test compounds were blended with a basal feed ration (shown in Table 2) at the indicated concentration. Birds fed […] and feed supplemented with zinc bacitracin (Baciferm® 50, International Minerals and Chemical Corp.) were used as controls. The test was continued for 11 days, after which individual weights, pen weight and feed consumption were recorded and analyzed.

[4] = Weight gain and feed utilization in chicks, 12 days (Example 14); type: in vivo, chicken; conditions: .0066% in feed; for Gain/Feed Data / Gains/gram Data: 12 days; for Gain/Feed Index Relative to #1 / Gains Index Relative to #1: #1 = unmedicated; for Gain/Feed Index Relative to #2 / Gains Index Relative to #2: #2 = zinc bacitracin
Experimental: as §3
All of the bacitracin-metal-polyether antibiotic complexes tested produced statistically significant increases in gains compared to the unmedicated basal ration.
The test involving test compounds 1 and 3-14 consisted of 5 replicates of 7 chicks and those involving test compound 2 consisted of 6 replicates of 7 chicks. The tests were continued for 12 days, after which individual weight gains and feed conusumption were recorded and analyzed.

[5] = 80 g/ton in feed, birds affected/birds in group
[6] = 80 g/ton in feed, birds dead/birds in group
[7] = 80 g/ton in feed, feed per gain
[8] = 120 g/ton in feed, birds affected/birds in group
[9] = 120 g/ton in feed, birds dead/birds in group
[10] = 120 g/ton in feed, feed per gain

## CC[C@@H](C(=O)[C@@H](C)[C@@H](O)[C@H](C)CCc1ccc(C)c(O)c1C(=O)O)[C@H]1O[C@](CC)([C@H]2CC[C@](O)(CC)[C@H](C)O2)C[C@@H]1C [Lasalocid, sodium lasalocid, reference compound]
Eimeria tenella [1]
  anticoccidial activity (in words): excellent anticoccidial activity
Eimeria tenella [1]; 80 g/ton in feed
  Incidence of Bloody Droppings: None
  Gain, Grams Day 0-3: 59.7 Grams
  Gain, Grams Day 4-10: 232.4 Grams
Eimeria tenella [1]; [5]
  Morbidity: 0/15
Eimeria tenella [1]; [6]
  Mortality: 0/15
Eimeria tenella [1]; [7]
  F/G Day 0-3: 1.68
  F/G Day 4-10: 1.58
Eimeria tenella [1]; 120 g/ton in feed
  Incidence of Bloody Droppings: None
  Gain, Grams Day 0-3: 55.7 Grams
  Gain, Grams Day 4-10: 230.1 Grams
Eimeria tenella [1]; [8]
  Morbidity: 1/15
Eimeria tenella [1]; [9]
  Mortality: 0/15
Eimeria tenella [1]; [10]
  F/G Day 0-3: 1.75
  F/G Day 4-10: 1.56
Eimeria tenella [2]; 14 g/ton Lasalocid (Approx.)
  Cecal Bleeding: Severe
  Gain/Bird Days 0-3: 58.7
  Gain/Bird Days 4-10: 148.5
Eimeria tenella [2]; 24 (.30 of 80) gram per ton
  Cecal bleeding associated with E. tenella infections: severe
Eimeria tenella [2]; 24 g/ton in feed
  Incidence of Bloody Droppings: Severe
  Morbidity: 9/15
  Mortality: 0/15
  F/G Day 0-3: 1.78
  Gain/Bird Grams Day 0-3: 58.7 Grams
  F/G Day 4-10: 2.09
  Gain/Bird Grams Day 4-10: 148.5 Grams
Eimeria tenella [2]; 36 g/ton Lasalocid (Approx.)
  Cecal Bleeding: Moderate
  Gain/Bird Days 0-3: 61.5
  Gain/Bird Days 4-10: 176.5
Eimeria tenella [2]; 36 g/ton in feed
  Incidence of Bloody Droppings: Moderate
  Morbidity: 5/14
  Mortality: 1/14
  F/G Day 0-3: 1.74
  Gain/Bird Grams Day 0-3: 61.5 Grams
  F/G Day 4-10: 1.86
  Gain/Bird Grams Day 4-10: 176.5 Grams
Eimeria tenella [2]; 80 g/ton in feed
  Incidence of Bloody Droppings: None
  Morbidity: 1/15
  Mortality: 0/15
  F/G Day 0-3: 1.71
  Gain/Bird Grams Day 0-3: 58.0 Grams
  F/G Day 4-10: 1.60
  Gain/Bird Grams Day 4-10: 219.4 Grams
Eimeria tenella [2]; 120 g/ton in feed
  Incidence of Bloody Droppings: None
  Morbidity: 0/15
  Mortality: 0/15
  F/G Day 0-3: 1.76
  Gain/Bird Grams Day 0-3: 52.1 Grams
  F/G Day 4-10: 1.52
  Gain/Bird Grams Day 4-10: 225.2 Grams

## CC[C@@]1([C@@H]2O[C@@H]([C@H]3O[C@@](O)(CO)[C@H](C)C[C@@H]3C)C[C@@H]2C)CC[C@H]([C@]2(C)CC[C@]3(C[C@H](O)[C@@H](C)[C@@H]([C@@H](C)[C@@H](OC)[C@H](C)C(=O)O)O3)O2)O1 [Monensin, sodium monensin, reference compound]
Eimeria tenella [1]; level in feed not given
  protection against cecal bleeding: fair
  tolerance by the birds: not tolerated well
  Incidence of Bloody Droppings: Slight
  Morbidity: 5/15
  Mortality: 0/15
  F/G Day 0-3: 1.81
  Gain, Grams Day 0-3: 53.2 Grams
  F/G Day 4-10: 1.64
  Gain, Grams Day 4-10: 202.5 Grams

## Bacitracin-Copper-Lysocellin Complex [Example 2]
Eimeria tenella [1]; 80 g/ton in feed
  Incidence of Bloody Droppings: Severe
  Gain, Grams Day 0-3: 59.0 Grams
  Gain, Grams Day 4-10: 200.2 Grams
Eimeria tenella [1]; [5]
  Morbidity: 6/15
Eimeria tenella [1]; [6]
  Mortality: 1/15
Eimeria tenella [1]; [7]
  F/G Day 0-3: 1.67
  F/G Day 4-10: 1.74
Eimeria tenella [1]; [8]
  Morbidity: 6/15
Eimeria tenella [1]; [9]
  Mortality: 0/15
Eimeria tenella [1]; 120 g/ton in feed
  Gain, Grams Day 0-3: 64.3 Grams
  Gain, Grams Day 4-10: 203.5 Grams
Eimeria tenella [1]; [10]
  F/G Day 0-3: 1.69
  F/G Day 4-10: 1.74
Eimeria tenella [2]; 14 g/ton Lasalocid (Approx.)
  Cecal Bleeding: Severe
  Gain/Bird Days 0-3: 60.5
  Gain/Bird Days 4-10: 171.5
Eimeria tenella [2]; 36 g/ton Lasalocid (Approx.)
  Cecal Bleeding: Slight-Moderate
  Gain/Bird Days 0-3: 57.0
  Gain/Bird Days 4-10: 198.7
Eimeria tenella [2]; 80 g/ton in feed
  Incidence of Bloody Droppings: Severe
  Morbidity: 5/15
  Mortality: 0/15
  F/G Day 0-3: 1.68
  Gain/Bird Grams Day 0-3: 60.5 Grams
  F/G Day 4-10: 1.92
  Gain/Bird Grams Day 4-10: 171.5 Grams
Eimeria tenella [2]; 80 gram per ton
  Cecal bleeding associated with E. tenella infections: severe
Eimeria tenella [2]; 80 gram per ton (lasalocid 24 gram per ton)
  weight gains compared with those of test compound 5 and lasalocid: appreciably higher
Eimeria tenella [2]; 120 g/ton in feed
  Morbidity: 4/15
  Mortality: 0/15
  F/G Day 0-3: 1.75
  Gain/Bird Grams Day 0-3: 57.0 Grams
  F/G Day 4-10: 1.74
  Gain/Bird Grams Day 4-10: 198.7 Grams
Eimeria tenella [2]
  anticoccidial activity (in words): good anticoccidial activity

## Bacitracin-Manganese-Lysocellin Complex [Example 3]
Eimeria tenella [1]
  anticoccidial activity (in words): excellent anticoccidial activity
Eimeria tenella [1]; 80 g/ton in feed
  Incidence of Bloody Droppings: None
  Gain, Grams Day 0-3: 61.7 Grams
  Gain, Grams Day 4-10: 226.6 Grams
Eimeria tenella [1]; [5]
  Morbidity: 1/15
Eimeria tenella [1]; [6]
  Mortality: 0/15
Eimeria tenella [1]; [7]
  F/G Day 0-3: 1.62
  F/G Day 4-10: 1.59
Eimeria tenella [1]; 120 g/ton in feed
  Incidence of Bloody Droppings: None
  Gain, Grams Day 0-3: 57.7 Grams
  Gain, Grams Day 4-10: 231.8 Grams
Eimeria tenella [1]; [8]
  Morbidity: 1/15
Eimeria tenella [1]; [9]
  Mortality: 0/15
Eimeria tenella [1]; [10]
  F/G Day 0-3: 1.68
  F/G Day 4-10: 1.61
[3]
  Average Gain: 215 g
  Gain/Feed Ratio: 64.6
  Average Weight: 274.8
  Gain/Feed: 64.6
  Average Gain Index: 104.5
  Gain/Feed Ratio Index: 101.3
Eimeria tenella [2]; 14 g/ton Lasalocid (Approx.)
  Cecal Bleeding: Moderate
  Gain/Bird Days 0-3: 61.3
  Gain/Bird Days 4-10: 154.0
Eimeria tenella [2]; 36 g/ton Lasalocid (Approx.)
  Cecal Bleeding: Slight-Moderate
  Gain/Bird Days 0-3: 61.3
  Gain/Bird Days 4-10: 202.4
Eimeria tenella [2]; 80 g/ton in feed
  Incidence of Bloody Droppings: Moderate
  Morbidity: 10/15
  Mortality: 0/15
  F/G Day 0-3: 1.81
  Gain/Bird Grams Day 0-3: 61.3 Grams
  F/G Day 4-10: 2.01
  Gain/Bird Grams Day 4-10: 154.0 Grams
Eimeria tenella [2]; 120 g/ton in feed
  Morbidity: 2/15
  Mortality: 0/15
  F/G Day 0-3: 1.58
  Gain/Bird Grams Day 0-3: 61.3 Grams
  F/G Day 4-10: 1.74
  Gain/Bird Grams Day 4-10: 202.4 Grams
Eimeria tenella [2]
  anticoccidial activity (in words): good anticoccidial activity
[4]
  Gain/Feed Data: .588
  Gains/gram Data: 202.0 gram
  Gain/Feed Index Relative to #1: 104.4
  Gains Index Relative to #1: 109.1
  Gain/Feed Index Relative to #2: 98.6
  Gains Index Relative to #2: 96.4

## Bacitracin-Zn-Lasalocid Complex
[3]
  Average Gain: 225 g
  Gain/Feed Ratio: 65.6
  Average Weight: 285.6
  Gain/Feed: 65.6
  Average Gain Index: 109.4
  Gain/Feed Ratio Index: 103.0
[4]
  Gain/Feed Data: .609
  Gains/gram Data: 213.5 gram
  Gain/Feed Index Relative to #1: 108.2
  Gains Index Relative to #1: 115.3
  Gain/Feed Index Relative to #2: 102.2
  Gains Index Relative to #2: 101.9

Source: US4693992A, “Bacitracin-metal-polyether antibiotic complexes” (International Minerals & Chemical Corp., priority 1985, dated 1987)
